From US20230372374A1, “VETERINARY PHARMACEUTICAL FORMULATIONS” (INCREVET, INC., priority 2022, published 2023)
In brackets after ≈: the same amount, converted by molar mass.

Experiments:
[1] = Solubility of bexagliflozin in aqueous media; format: physicochemical; conditions: aqueous media at 37° C.
[2] = Pharmacokinetics in cats after capsule dosing; format: in vivo, cat
Method: Capsules were evaluated using cohorts of four laboratory cats that were administered test article at multiple dose levels. The test article was prepared in size 4 gelatin capsules and administered by mouth to animals that had been fasted 12 h. The capsules were loaded with 5% bexagliflozin (w/w) in microcrystalline cellulose for the 0.1, 0.3 and 1.0 mg kg^−1 dose levels, and with bexagliflozin alone for the 3.0 and 10.0 mg kg^−1 dose levels. The cats were provided with food ad libitum 2 hours after dosing.
Blood samples were collected from the acral vein at the scheduled time points. Samples of 0.1 to 0.3 mL were drawn into 1.5 mL tubes containing dipotassium EDTA as an anticoagulant. The samples were immediately mixed by gently inverting the tube approximately 8 times. Immediately following mixing, the tubes were placed on crushed ice and kept chilled until centrifugation. Samples were centrifuged within 1 hour of collection. Following centrifugation, the tubes were returned to crushed ice and supernatants transferred into microcentrifuge tubes and frozen. The tubes were stored frozen in a −20° C. freezer at the testing facility prior to shipment for analysis. Plasma bexagliflozin concentration was measured by an LC-MS/MS method. Separations were performed using an Agilent 1200 equipped with a Thermo Betasil C18 50×2.1 mm, 5 μm packing column or a Phenomenex Gemini C18 50×4.5 mm, 5 μm packing column. Analyte detection was performed with an ABI 4000 or AB Sciex QTRAP 5500 mass spectrometer.
The volume of distribution was relatively large, ranging from 5.5 to 11.9 L kg^−1, with no dose-dependent trend. […] The majority of the variation in half-life was attributable to variation in the volume of distribution, and the clearance was relatively constant at 1.46±0.24 L h^−1 kg^−1. The AUC0-24 was proportional to dose over the entire dosing range and a linear regression with a constrained intercept of 0 ng h mL^−1 at 0 mg kg^−1 gave a slope of 762 ng h mL^−1 per mg kg^−1 of dose (FIG. 2).

[3] = tested on: renal glucose reuptake; assay: Urinary glucose excretion in cats after tablet dosing; format: in vivo, cat; conditions: healthy cats, tablets, corrected for assay
Method: A dose range-finding study was conducted with tablets prepared using a polacrilex resin slurry process. For the evaluation of pharmacodynamics, animals were fed canned food, to promote a constant daily urine volume and proper collection of urine samples. Water was supplied ad libitum.
All animals were administered test article at each dose level. The 2.5 mg dose was delivered as half of one 5 mg tablet cleaved with a pill cutter. The 5 mg dose was delivered as one 5 mg tablet per cat, the 10 mg dose was delivered as one 10 mg tablet per cat and the 30 mg dose was delivered as two 15 mg tablets per cat. For the pharmacokinetics study, test articles were dosed after the sampling of blood at pre-dose (0 h) time point. For the pharmacodynamics study, test articles were administered daily at 9:00-9:30 for four consecutive days and urine excreted by the animals for the last three days (after the dose and before next dose) was collected.
Collections were performed for three days to diminish the consequences of day-to-day variation of urine excretion. […] For convenience in referring to dose levels, the nominal dosages are used in this report, but calculations of dose-response relationships in mg kg^−1 were based on the measured bexagliflozin content.
The pharmacodynamics elicited by bexagliflozin delivered by tablets was also evaluated. […]

[4] = tested on: renal glucose reuptake; assay: Urinary glucose excretion in cats after capsule dosing; format: in vivo, cat
Method: The pharmacodynamics of inhibitors of renal glucose reuptake can be easily monitored by measurement of urinary glucose excretion (UGE). The sodium-linked glucose transporters SGLT1 and SGLT2 are expressed in the second and first segments, respectively, (pars recta and pars convoluta) of the renal proximal tubule.
As described above, 4 laboratory cats were administered bexagliflozin as either a blend with microcrystalline cellulose or as pure bexagliflozin, in each case in gelatin capsules. Bexagliflozin induced a significant glucosuria in healthy cats. At 3 mg kg^−1, total urinary glucose excreted over a period of 24 hours was 4.78 g (Table 14). […] Glucosuria following test article administration in the fasted state was higher than glucosuria following administration in the fed state (Table 14, bottom row).

[5] = humans; cited from earlier work
[6] = tested on: renal glucose reuptake; assay: Urinary glucose excretion in cats after DEGEE/glycerol liquid formulations; format: in vivo, cat; conditions: daily oral DEGEE/glycerol liquid formulations F16D-V1 to F16D
Method: The pharmacodynamics produced by liquid formulations of bexagliflozin were also evaluated. Cats were fed daily with Whiskas Cat Food in Can (Ocean Fish) and bexagliflozin was delivered orally daily with different formulations derived from F16D as shown in Table 15.
Cats were dosed with F16D-V0 (0.1 mL kg^−1) for two days (vehicle control), and urine samples were collected on the second day for glucose excretion analysis. Similarly, cats were dosed daily with F16D-V1 (0.1 mL kg^−1) from Day 1 to Day 4 at 0.1 mg kg^−1 dose, and urine samples were collected from Day 2 to Day 4 for glucose excretion analysis; cats were dosed daily with F16D-V2 (0.1 mL kg^−1) from Day 5 to Day 8 at 0.3 mg kg^−1 dose, and urine samples were collected from Day 6 to Day 8 for glucose excretion analysis; cats were dosed daily with F16D-V3 (0.1 mL kg^−1) from Day 9 to Day 12 at 1 mg kg^−1 dose, and urine samples collected from Day 10 to Day 12 for glucose excretion analysis; and cats were dosed daily with F16D (0.1 mL kg^−1) from Day 13 to Day 16 at 3 mg kg^−1 dose, and urine samples were collected from Day 14 to Day 16 for glucose excretion analysis.
Urine samples were analyzed using a HITACHI 7600-010 automatic biochemistry analyzer. Urine glucose and creatinine concentrations were measured. […]

## OC[C@H]1O[C@@H](c2ccc(Cl)c(Cc3ccc(OCCOC4CC4)cc3)c2)[C@H](O)[C@@H](O)[C@@H]1O [Bexagliflozin, (2S,3R,4R,5S,6R)-2-(4-chloro-3-(4-(2-cyclopropoxyethoxy)benzyl)phenyl)-6-(hydroxymethyl)tetrahydro-2H-pyran-3,4,5-triol]
[1]
  solubility: ~500 µg/mL (≈ 1080 µM)
[2]; cats, capsules, linear regression with constrained intercept of 0
  slope of AUC0-24 versus dose: 762 ng h mL^−1 per mg kg^−1
[2]; in vivo, po
  Tmax: 0.6 to 1.2 h
  clearance: 24.3 ± 4 mL/min/kg
  half-life: 2.9 to 5.9 h
  volume of distribution: 5.5 to 11.9 L/kg
[3]
  ED50 for UGE: 0.505 mg/kg
[4]; cats, capsule, 3 mg kg^−1
  total urinary glucose excreted over a period of 24 hours: 4.78 g
[4]; healthy cats, capsules
  ED50 of glucosuria: 0.56 mg/kg
[5]
  hazard ratio for the reduction in major adverse cardiovascular events: 0.774
[6]
  half-maximal dose (ED50) for daily glucose excretion: 0.383 mg/kg/day
[6]; 0.1 to 3 mg kg^−1
  maximum daily glucose excretion (predicted): 7854 mg
